In ChEMBL document CHEMBL1157371, “Prevalence, characteristics, and molecular epidemiology of macrolide and fluoroquinolone resistance in clinical isolates of Streptococcus pneumoniae at five tertiary-care hospitals in Korea” (2007):
In brackets after ≈: the same amount, converted by molar mass.

Assays:
Assay type in all cases: functional
Streptococcus pneumoniae [1] = experiment: Antibacterial activity against erythromycin-resistant Streptococcus pneumoniae isolates assessed as percent susceptible isolates by broth microdilution method
Streptococcus pneumoniae [2] = experiment: Antibacterial activity against erythromycin-resistant Streptococcus pneumoniae isolates by broth microdilution method
Streptococcus pneumoniae [3] = experiment: Antibacterial activity against erythromycin-resistant Streptococcus pneumoniae isolates assessed as percent resistant isolates by broth microdilution method
Streptococcus pneumoniae [4] = experiment: Antibacterial activity against erythromycin-resistant Streptococcus pneumoniae isolate-2 with gyrA Ser81Phe, Ser114Gly, ParC Ser52Gly, Ser79Phe, Asn91Asp and parE Ile460Val mutation by broth microdilution method
Streptococcus pneumoniae [5] = experiment: Antibacterial activity against erythromycin-resistant Streptococcus pneumoniae isolate-6 with parE Ile460Val mutation by broth microdilution method
Streptococcus pneumoniae [6] = experiment: Antibacterial activity against erythromycin-resistant Streptococcus pneumoniae isolate-9 with parC Asn94ser and parE Ile460Val mutation by broth microdilution method
Streptococcus pneumoniae [7] = experiment: Antibacterial activity against erythromycin-resistant Streptococcus pneumoniae isolate-3 with ParC Ser79Tyr and parE Ile460Val mutation by broth microdilution method
Streptococcus pneumoniae [8] = experiment: Antibacterial activity against erythromycin-resistant Streptococcus pneumoniae isolate-8 with parE Ile460Val mutation by broth microdilution method
Streptococcus pneumoniae [9] = experiment: Antibacterial activity against erythromycin-resistant Streptococcus pneumoniae isolate-4 with gyrA Ser81Phe, ParC Lys137Asn and parE Ile460Val, Asp435Asn mutation by broth microdilution method
Streptococcus pneumoniae [10] = experiment: Antibacterial activity against erythromycin-resistant Streptococcus pneumoniae isolate-7 with parE Ile460Val mutation by broth microdilution method
Streptococcus pneumoniae [11] = experiment: Antibacterial activity against erythromycin-resistant Streptococcus pneumoniae isolate-5 with ParC Ser79Tyr, Lys137Asn and parE Ile460Val mutation by broth microdilution method
Streptococcus pneumoniae [12] = experiment: Antibacterial activity against erythromycin-resistant Streptococcus pneumoniae isolate-1 with gyrA Glu85Lys, ParC Ser79Phe and parE Ile460Val mutation by broth microdilution method

| SMILES | Percent susceptible isolates (Streptococcus pneumoniae [1]) [%] | MIC50 (Streptococcus pneumoniae [2]) [µg/mL] | MIC90 (Streptococcus pneumoniae [2]) [µg/mL] | Activity (Streptococcus pneumoniae [3]) [%] | MIC (Streptococcus pneumoniae [4]) [µg/mL] | MIC (Streptococcus pneumoniae [5]) [µg/mL] | MIC (Streptococcus pneumoniae [6]) [µg/mL] | MIC (Streptococcus pneumoniae [7]) [µg/mL] | MIC (Streptococcus pneumoniae [8]) [µg/mL] | MIC (Streptococcus pneumoniae [9]) [µg/mL] | MIC (Streptococcus pneumoniae [10]) [µg/mL] | MIC (Streptococcus pneumoniae [11]) [µg/mL] | MIC (Streptococcus pneumoniae [12]) [µg/mL] |
| --- | --- | --- | --- | --- | --- | --- | --- | --- | --- | --- | --- | --- | --- |
| CC1(C)S[C@@H]2[C@H](NC(=O)[C@H](N)c3ccc(O)cc3)C(=O)N2[C@H]1C(=O)O [AMOXICILLIN] | 40.9 | 4 (≈ 10.9 µM) | 16 (≈ 43.8 µM) | 33.2 |  |  |  |  |  |  |  |  |  |
| CO/N=C(\C(=O)N[C@@H]1C(=O)N2C(C(=O)O)=C(COC(C)=O)CS[C@H]12)c1csc(N)n1 [CEFOTAXIME] | 78.7 | 1 (≈ 2.2 µM) | 2 (≈ 4.39 µM) | 3.4 |  |  |  |  |  |  |  |  |  |
| CO/N=C(\C(=O)N[C@@H]1C(=O)N2C(C(=O)O)=C(CSc3nc(=O)c(O)nn3C)CS[C@H]12)c1csc(N)n1 [CEFTRIAXONE] | 76.2 | 1 (≈ 1.8 µM) | 2 (≈ 3.61 µM) | 3.4 |  |  |  |  |  |  |  |  |  |
| CC[C@H]1OC(=O)[C@H](C)[C@@H](O[C@H]2C[C@@](C)(OC)[C@@H](O)[C@H](C)O2)[C@H](C)[C@@H](O[C@@H]2O[C@H](C)C[C@H](N(C)C)[C@H]2O)[C@](C)(OC)C[C@@H](C)C(=O)[C@H](C)[C@@H](O)[C@]1(C)O [CLARITHROMYCIN] | 23.4 | 64 (≈ 85.6 µM) | ≥ 128 | 72.8 |  |  |  |  |  |  |  |  |  |
| CC[C@H]1OC(=O)[C@H](C)[C@@H](O[C@H]2C[C@@](C)(OC)[C@@H](O)[C@H](C)O2)[C@H](C)[C@@H](O[C@@H]2O[C@H](C)C[C@H](N(C)C)[C@H]2O)[C@](C)(O)C[C@@H](C)C(=O)[C@H](C)[C@@H](O)[C@]1(C)O [ERYTHROMYCIN] | 20 | 4 (≈ 5.45 µM) | ≥ 128 | 80 |  |  |  |  |  |  |  |  |  |
| C[C@H]1COc2c(N3CCN(C)CC3)c(F)cc3c(=O)c(C(=O)O)cn1c23.C[C@H]1COc2c(N3CCN(C)CC3)c(F)cc3c(=O)c(C(=O)O)cn1c23.O [LEVOFLOXACIN] | 96.2 | 1 | 2 | 3 | 0.008 | 0.008 | 0.004 | 0.064 | 0.064 | 0.008 | 0.064 | 0.004 | 0.032 |
| CC(=O)NC[C@H]1CN(c2ccc(N3CCOCC3)c(F)c2)C(=O)O1 [LINEZOLID] | 100 | 0.5 (≈ 1.48 µM) | 1 (≈ 2.96 µM) | 0 |  |  |  |  |  |  |  |  |  |
| COc1c(N2C[C@@H]3CCCN[C@@H]3C2)c(F)cc2c(=O)c(C(=O)O)cn(C3CC3)c12 [MOXIFLOXACIN] | 97.9 |  |  | 1.7 |  |  |  |  |  |  |  |  |  |
| CN(C)[C@@H]1C(O)=C(C(N)=O)C(=O)[C@@]2(O)C(O)=C3C(=O)c4c(O)cccc4[C@@](C)(O)[C@H]3C[C@@H]12 [TETRACYCLINE] | 18.3 | 32 (≈ 72 µM) | 64 (≈ 144 µM) | 81.3 |  |  |  |  |  |  |  |  |  |
| CN[C@H](CC(C)C)C(=O)N[C@H]1C(=O)N[C@@H](CC(N)=O)C(=O)N[C@H]2C(=O)N[C@H]3C(=O)N[C@H](C(=O)N[C@H](C(=O)O)c4cc(O)cc(O)c4-c4cc3ccc4O)[C@H](O)c3ccc(c(Cl)c3)Oc3cc2cc(c3O[C@@H]2O[C@H](CO)[C@@H](O)[C@H](O)[C@H]2O[C@H]2C[C@](C)(N)[C@H](O)[C@H](C)O2)Oc2ccc(cc2Cl)[C@H]1O [VANCOMYCIN] | 100 | 0.25 (≈ 0.173 µM) | 0.25 (≈ 0.173 µM) | 0 |  |  |  |  |  |  |  |  |  |
